Reference: patent US9505781B2, “Compositions comprising thienopyrimidine and thienopyridine compounds and methods of use thereof” (The Regents of the University of Michigan, priority 2013, dated 2016)

biological target: T1, menin-MLL interaction (Homo sapiens, UniProt O00255); experiment: biochemical
T1 sequence (O00255 1-610): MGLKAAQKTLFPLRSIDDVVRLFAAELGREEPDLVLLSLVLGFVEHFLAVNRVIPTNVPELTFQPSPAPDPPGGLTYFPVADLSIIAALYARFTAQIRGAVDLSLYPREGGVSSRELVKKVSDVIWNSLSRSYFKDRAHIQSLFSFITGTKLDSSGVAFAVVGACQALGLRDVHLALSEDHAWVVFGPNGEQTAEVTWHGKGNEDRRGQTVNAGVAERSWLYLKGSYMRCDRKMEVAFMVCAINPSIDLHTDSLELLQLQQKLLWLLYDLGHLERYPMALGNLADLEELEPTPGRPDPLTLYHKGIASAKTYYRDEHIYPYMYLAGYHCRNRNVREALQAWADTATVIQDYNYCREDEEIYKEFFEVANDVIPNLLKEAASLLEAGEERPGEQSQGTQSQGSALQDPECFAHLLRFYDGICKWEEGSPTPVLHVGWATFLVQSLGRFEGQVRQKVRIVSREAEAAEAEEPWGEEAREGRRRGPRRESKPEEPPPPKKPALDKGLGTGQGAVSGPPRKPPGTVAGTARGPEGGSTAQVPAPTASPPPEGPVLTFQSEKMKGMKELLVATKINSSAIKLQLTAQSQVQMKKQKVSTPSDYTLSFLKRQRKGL
From the text: Compounds that inhibit the interaction decrease the fluorescence anisotropy which is being used as a read-out for compound screening and for IC50 determination.

**Q.** How did the IC50 turn out when CCC(=O)N1CCN(CCn2c(C#N)cc3cc(CN4CCC(Nc5ncnc6sc(CC(F)(F)F)cc56)CC4)ccc32)CC1 [Compound 394] was run?
**A.** The IC50 was under 0.1 µM.

**Q.** With N#Cc1c[nH]c2cc(CN3CCC(Nc4ncnc5sc(CC(F)(F)F)cc45)CC3)ccc12 [Compound 228] as the compound, how does the IC50 read?
**A.** Its IC50 is 0.1 to 0.5 µM.

**Q.** How did the IC50 turn out when O=C(Cc1ccc(NS(=O)(=O)N2CCCCC2)cc1Cl)N1CCN(C2=NC=NC3SC(CC(F)(F)F)=CC23)CC1 (stereo not drawn) [Compound 284] was run?
**A.** Its IC50 is under 0.1 µM.

**Q.** For CCOc1c(CN2CCC(Nc3ncnc4sc(CC(F)(F)F)cc34)CC2)ccc2c1cc(C#N)n2CC(N)=O [Compound 409], which IC50 is on record?
**A.** Its IC50 is 0.1 to 0.5 µM.

**Q.** Which IC50 does the source give for FC(F)(F)Cc1sc2ncnc3c2c1CNN3C1CCN(Cc2ccccc2)CC1 [Compound 158] here?
**A.** The IC50 was 0.5 to 2 µM.

**Q.** For CCCc1cc2c(N3CCN(C4CCCCCC4)CC3)ncnc2s1 [Compound 31], which IC50 is on record?
**A.** Its IC50 is 0.5 to 2 µM.

**Q.** Cc1c(CN2CCC(Nc3ncnc4sc(CC(F)(F)F)cc34)CC2)ccc2c1cc(C#N)n2Cc1cnn(C)c1 [Compound 379] was tested. Which IC50 did it give?
**A.** Its IC50 is under 0.1 µM.

**Q.** For Oc1ccccc1CN1CCC(Nc2ncnc3sc(CC(F)(F)F)cc23)CC1 [Compound 114], which IC50 is on record?
**A.** The IC50 was 0.1 to 0.5 µM.

**Q.** Which IC50 does the source give for CCOc1cc2c(cc1CN1CCC(Nc3ncnc4sc(CC(F)(F)F)cc34)CC1)cc(C#N)n2CC(N)=O [Compound 216] here?
**A.** Its IC50 is under 0.1 µM.

**Q.** For N#Cc1cc2c(C(F)F)c(CN3CCC(Nc4ncnc5sc(CC(F)(F)F)cc45)CC3)ccc2[nH]1 [Compound 305], which IC50 is on record?
**A.** Its IC50 is under 0.1 µM.

**Q.** Which IC50 does the source give for FC(F)(F)Cc1cc2c(NC3CCN(Cc4ccc(N5CCOCC5)cc4Cl)CC3)ncnc2s1 [Compound 115] here?
**A.** The IC50 was 0.1 to 0.5 µM.

**Q.** How did the IC50 turn out when Cc1c(CN2CCC(Nc3ncnc4sc(CC(F)(F)F)cc34)CC2)ccc2c1cc(C#N)n2CC1CN(C)C(=O)CO1 (stereo not drawn) [Compound 426] was run?
**A.** Its IC50 is under 0.1 µM.

**Q.** Which IC50 does the source give for COc1c(CN2CCC(Nc3ncnc4sc(CC(F)(F)F)cc34)CC2)ccc2[nH]c(C#N)cc12 [Compound 180, 4-methoxy-5-((4-((6-(2,2,2-trifluoroethyl)thieno[2,3-d]pyrimidin-4-yl)amino)piperidin-1-yl)methyl)-1H-indole-2-carbonitrile] here?
**A.** The IC50 was under 0.1 µM.

**Q.** How did the IC50 turn out when Cc1cn[nH]c1Cn1c(C#N)cc2c(C)c(CN3CCC(Nc4ncnc5sc(CC(F)(F)F)cc45)CC3)ccc21 [Compound 330] was run?
**A.** The IC50 was under 0.1 µM.

**Q.** O=C1CCC(c2ccc(CC(=O)N3CCN(c4ncnc5sc(CC(F)(F)F)cc45)CC3)cc2)N1 (stereo not drawn) [Compound 80] was tested. Which IC50 did it give?
**A.** Its IC50 is 0.1 to 0.5 µM.

**Q.** FC(F)(F)Cc1cc2c(N[C@H]3CCN(Cc4ccccc4)C[C@@H]3NCC3CCCC3)ncnc2s1 [Compound 169] was tested. Which IC50 did it give?
**A.** The IC50 was 0.1 to 0.5 µM.

**Q.** N#Cc1cc2cc(CN3CCC(Nc4ncnc5sc(CC(F)(F)F)cc45)CC3)c(F)cc2n1CC(N)=O [Compound 214] was tested. Which IC50 did it give?
**A.** The IC50 was under 0.1 µM.

**Q.** For N#Cc1cc2cc(CN3CCC(Nc4ncnc5sc(CC(F)(F)F)cc45)CC3)ccc2n1CCn1cncn1 [Compound 209], which IC50 is on record?
**A.** The IC50 was under 0.1 µM.

**Q.** How did the IC50 turn out when N#Cc1cc2cc(CN3CCC(Nc4ncnc5sc(CC(F)(F)F)cc45)CC3)ccc2n1Cc1cc(OCCCC2CC2)n[nH]1 [Compound 414] was run?
**A.** The IC50 was 0.1 to 0.5 µM.

**Q.** N#Cc1cc2cc(CN3CCC(Nc4ncnc5sc(CC(F)(F)F)cc45)CC3)ccc2n1N [Compound 230] was tested. Which IC50 did it give?
**A.** Its IC50 is 0.1 to 0.5 µM.

**Q.** For CCCC(c1ccc(CC(=O)N2CCN(c3ncnc4sc(CC(F)(F)F)cc34)CC2)cc1)S(C)(=O)=O (stereo not drawn) [Compound 98], which IC50 is on record?
**A.** Its IC50 is 0.5 to 2 µM.

**Q.** How did the IC50 turn out when N#Cc1cc2c(F)c(CN3CCC(Nc4ncnc5sc(CC(F)(F)F)cc45)CC3)ccc2n1CC(N)=O [Compound 205] was run?
**A.** Its IC50 is under 0.1 µM.

**Q.** CC(=O)NCCC(O)(CO)Cn1c(C#N)cc2c(C)c(CN3CCC(Nc4ncnc5sc(CC(F)(F)F)cc45)CC3)ccc21 (stereo not drawn) [Compound 371] was tested. Which IC50 did it give?
**A.** The IC50 was under 0.1 µM.

**Q.** For Cc1nnc(Cn2c(C#N)cc3c(C)c(CN4CCC(Nc5ncnc6sc(CC(F)(F)F)cc56)CC4)ccc32)o1 [Compound 334], which IC50 is on record?
**A.** Its IC50 is under 0.1 µM.

**Q.** Which IC50 does the source give for Cc1c(CN2CCC(Nc3ncnc4sc(CC(F)(F)F)cc34)CC2)ccc2c1cc(C#N)n2Cc1cc(Cc2ccc(=O)[nH]c2)[nH]n1 [Compound 347] here?
**A.** The IC50 was under 0.1 µM.

**Q.** Which IC50 does the source give for Cn1ccnc1Cn1c(C#N)cc2cc(CN3CCC(Nc4ncnc5sc(CC(F)(F)F)cc45)CC3)ccc21 [Compound 203] here?
**A.** Its IC50 is under 0.1 µM.

**Q.** For Cc1c(CN2CCC(Nc3ncnc4sc(CC(F)(F)F)cc34)CC2)ccc2c1cc(C#N)n2CC1CNC(=O)C1 (stereo not drawn) [Compound 430], which IC50 is on record?
**A.** Its IC50 is under 0.1 µM.
